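48-hour exposure; five concentrations; linearly interpolated endpoints. Here, GI50 denotes the concentration required for 50% inhibition of growth. TGI: concentration producing complete growth inhibition.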
Tests used:
Test in all cases: NCI anticancer screen, dose series, 48 h
[1] = system: A549 NSCLC
[2] = system: DU-145 prostate
[3] = system: HCC-2998 colon
[4] = system: KM12 colon
[5] = system: LOX IMVI melanoma
[6] = system: MALME-3M melanoma
[7] = system: NCI-H226 lung
[8] = system: OVCAR-8 ovarian
[9] = system: SR leukemia
[10] = system: TK-10 renal

Structure (SMILES) | TGI [1] | TGI [2] | TGI [3] | TGI [4] | TGI [5] | TGI [6] | TGI [7] | TGI [8] | TGI [9] | TGI [10] | GI50 [1] | GI50 [2] | GI50 [3] | GI50 [4] | GI50 [5] | GI50 [6] | GI50 [7] | GI50 [8] | GI50 [9] | GI50 [10]
O=C1C=C(Br)c2c(-c3ccccc3)oc3cccc1c23 | > 100 µM | > 100 µM | > 100 µM | > 100 µM | > 65.4 µM | > 100 µM | > 100 µM | > 100 µM | > 30.8 µM | 82.1 µM |  |  |  |  |  |  |  |  |  | 
C=CC(=O)Nc1cccc(C)c1Nc1cc(-c2cccnc2Cc2c(C)c(OC)cc(OC)c2C)ncn1 | > 100 µM | > 100 µM | 30.6 µM | 34.2 µM | 19.8 µM | 49 µM | 63 µM | 50 µM | > 100 µM | 99.4 µM | 16.2 µM | 16.7 µM | 16 µM | 13.4 µM | 6.12 µM | 17.8 µM | 10.5 µM | 12 µM | 4.41 µM | 10.8 µM
Cc1cc(N/N=C/c2nc(-c3ccc(Br)cc3)oc2C)c2cc(Cl)ccc2n1 | > 100 µM | > 100 µM | > 100 µM | > 100 µM | > 100 µM | > 100 µM | > 100 µM | > 100 µM | > 100 µM | > 100 µM | > 100 µM | > 100 µM | > 100 µM | > 100 µM | > 100 µM | > 100 µM | > 100 µM | > 100 µM | > 100 µM | > 100 µM
C[C@]12CC[C@H]3[C@@H](CCC4=CC(=O)CC[C@@H]43)[C@@H]1CC[C@@H]2OC(=O)CCc1ccccc1 | > 73.7 µM | 32.5 µM | > 78.2 µM | 43 µM | 29.1 µM | 34.4 µM | 34 µM | 49.3 µM | > 53.4 µM | 33.7 µM | 25.1 µM | 15.6 µM | 29.7 µM | 19.8 µM | 15.6 µM | 17 µM | 16.5 µM | 21.5 µM | 11.2 µM | 14.5 µM
O=C1C(=O)c2c(nc3ccc(Cl)cn23)-c2ccccc21 |  | 0.452 µM | 3.96 µM | 3.89 µM | 0.498 µM | 0.368 µM | 3.49 µM | 1.91 µM | 1.44 µM | 3.59 µM | 0.84 µM | 0.223 µM | 2.06 µM | 1.78 µM | 0.216 µM | 0.171 µM | 1.65 µM | 0.471 µM | 0.348 µM | 1.8 µM
COc1cc2nc(N3CCCC3)nc(NCC3CCCCC3)c2cc1OC | 3.25 µM | 2.92 µM | 1.62 µM | 3.13 µM | 0.793 µM | 2.55 µM | 4.05 µM | 3.52 µM | 1.08 µM | 3.28 µM | 1.52 µM | 1.51 µM | 0.444 µM | 1.63 µM | 0.281 µM | 1.24 µM | 1.94 µM | 1.59 µM | 0.254 µM | 1.73 µM
O=C(O)C/C=C/CC(=O)O | > 100 µM | > 100 µM | > 100 µM | > 100 µM | > 100 µM | > 100 µM | > 100 µM | > 100 µM | > 100 µM | > 100 µM |  |  |  |  |  |  |  |  |  | 
COc1cccc(NC(=O)c2sc3nc4c(cc3c2N)CN(Cc2ccccc2)CC4)c1 | 53.8 µM | 22.2 µM | > 100 µM | 40.3 µM | 43.5 µM | 16.6 µM | 38.3 µM | 85.2 µM | 47.7 µM | 21.6 µM | 3.79 µM | 5.22 µM | 9.13 µM | 11.8 µM | 4.09 µM | 1.43 µM | 6.03 µM | 4.45 µM | 0.453 µM | 4.82 µM

From PubChem BioAssay (NCI)
